Experimental data from patent US20100105652A1, “PURINES AS CYSTEINE PROTEASE INHIBITORS” (Glaxo Group Limited, priority 2007, published 2010).
Structures can show the parent of a compound that is named as a salt.

Tests used:
[1] = system: Plasmodium falciparum parasite; assay: whole cell activity against the Plasmodium falciparum parasite; format: cell-based
Excerpt: Equation 7 describes the apparent KI for competitive compounds and was substituted into equations 5 and 6 to generate the relevant binding constants from the fitting routine. In addition, the initial and final velocities were fit to equation 3 to further define the binding mechanism and potency. A complete discussion of this kinetic treatment has been fully described (Morrison et al., Adv. Enzymol. Relat. Areas Mol. Biol., 1988, 61, 201). 2) Determination of Whole Cell Activity Against the Plasmodium falciparum Parasite Compounds can be evaluated for whole cell activity against the Plasmodium falciparum parasite according to the procedure described in Sijwali S, and Rosenthal P. J., (2004) Proceedings of the National Academy of Sciences of the United States of America (PNAS) 101(13), 4384-4389 (see in particular “Measurement of Parasite Growth rates and Inhibitor Sensitivity” on page 4385); IC50 values can be calculated as described in Singh A. and Rosenthal P. J., (2001) Antimicrobial Agents and Chemotherapy 45(3), 949-951 (see in particular page 950, first column); synchronised parasites can be prepared as described in Divo A. A. et al., (1985) Protozool. 32, 59-64.

Falcipain-2 = biological target: T1, Falcipain-2 (Plasmodium falciparum, UniProt Q8I6U4); assay: falcipain-2 enzymatic assay (fluorogenic substrate H-D-VLR-AFC, endpoint); format: biochemical; settings: parasitic recombinant enzyme, pH 5.5, quenched after 60 minutes
T1 sequence (Q8I6U4 244-484): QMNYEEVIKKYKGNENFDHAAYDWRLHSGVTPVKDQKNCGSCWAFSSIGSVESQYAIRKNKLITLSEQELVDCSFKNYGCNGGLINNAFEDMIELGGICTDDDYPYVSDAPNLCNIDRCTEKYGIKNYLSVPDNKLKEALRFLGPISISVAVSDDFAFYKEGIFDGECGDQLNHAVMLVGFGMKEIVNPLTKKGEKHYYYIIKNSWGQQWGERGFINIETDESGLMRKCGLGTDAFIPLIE
Protocol: (§1) 1) Determination of Falcipain-2, Falcipain-3, Vivapain-2, and Cathepsin S Proteolytic Catalytic Activity
(§2) Assays for Falcipain-2, Falcipain-3, and Vivapain-2 are carried out with parasitic recombinant enzymes. Cathepsins S is carried out with human recombinant enzymes. Standard assay conditions for the determination of kinetic constants used a fluorogenic peptide substrate, typically H-D-VLR-AFC (Falcipain-2, Falcipain-3, Vivapain-2) or KQKLR-AMC (Cathepsin S) and are determined in 100 mM sodium acetate, pH 5.5, containing 10 mM DTT and 0.5 mM CHAPS (Falcipain-2, Falcipain-3, Vivapain-2), or 50 mM MES, pH 6.5, containing 0.5 mM CHAPS, 10 mM L-CYS, 5 mM EDTA (Cathepsin S). Stock substrate solutions are prepared at 20 mM in DMSO. The activity assays contained 30 uM substrate (Falcipain-2, Falcipain-3, Vivapain-2), and 30 uM substrate (Cathepsin S). All assays contained 1% DMSO. […] All assays are conducted at ambient temperature as end point assays being quenched after 60 minutes with the exception of Cathepsin S at 90 minutes, with 16.6 uM E-64 in 1% DMSO. Product formation (AFC or AMC) is determined from fluorescence (excitation at 405 nm; emission at 530 nm, AFC, or excitation at 360 nm; emission at 460 nm, AMC) monitored with a LJL Aquest (Molecular Devices) fluorescent plate reader. In the case of kinetic reads (used in mechanism of action studies), the reaction is not quenched but is read in the plate reader every 3 minutes for approximately 90 minutes. In addition, the mechanism of action studies for Falcipain-2 utilize Z-LR-AMC as the substrate. Product formation is determined from the fluorescence of AMC, measured with a LJL Acquest (Molecular Devices) fluorescent plate reader (excitation at 360 nm; emission at 460 nm).
(§3) Potential inhibitors are evaluated using the quenched read (endpoint) method. Assays are carried out in the presence of variable concentrations of test compound. Reactions are initiated by addition of enzyme and substrate to wells containing inhibitor stamped in 100% DMSO. For endpoint assays, the reaction is quenched with the addition of E64. Dose response data is fit to an IC50 curve with preset fitting tools according to equation 1:
(§4) y=a+(b−a)/(1+(10^X/10^C)^d) (1)
(§5) where y is the response at a particular inhibitor concentration x, a is the minimum response value, b is the maximum response value, c is the IC50, and d is the slope of the IC50 curve. Assuming the compound is a competitive inhibitor, the apparent KI can be calculated from IC50, as shown in equation 2: […]

Falcipain-3 = biological target: T2, Falcipain-3 (Plasmodium falciparum, UniProt Q8IIL0); assay: falcipain-3 enzymatic assay (fluorogenic substrate H-D-VLR-AFC, endpoint); format: biochemical; settings: parasitic recombinant enzyme, pH 5.5, quenched after 60 minutes
T2 sequence (Q8IIL0 243-492): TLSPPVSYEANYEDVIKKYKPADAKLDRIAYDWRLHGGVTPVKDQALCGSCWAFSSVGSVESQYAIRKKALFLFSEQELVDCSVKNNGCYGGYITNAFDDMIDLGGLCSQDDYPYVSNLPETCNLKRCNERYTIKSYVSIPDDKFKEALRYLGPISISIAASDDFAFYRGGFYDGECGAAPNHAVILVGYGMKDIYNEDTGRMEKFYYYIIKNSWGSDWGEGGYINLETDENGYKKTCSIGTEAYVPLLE
Protocol: as §1, §2, §3, §4, §5

## CN(C)CCCCNC(=O)n1cnc2c(N(NC(=O)OC(C)(C)C)C3CCCC3)nc(C#N)nc21 [Example 49, 1,1-dimethylethyl 2-[2-cyano-9-({[4-(dimethylamino)butyl]amino}carbonyl)-9H-purin-6-yl]-2-cyclopentylhydrazinecarboxylate trifluoroacetate]
[1]
  IC50: > 1 µM
Falcipain-2
  IC50: 0.0025 to 0.015 µM
Falcipain-3
  IC50: 0.015 to 0.15 µM

## CN1CCN(c2cccc(C(=O)NN(c3nc(C#N)nc4c3ncn4C)C3CCCCC3)c2)CC1 [Example 36, N′-(2-cyano-9-methyl-9H-purin-6-yl)-N′-cyclohexyl-3-(4-methyl-1-piperazinyl)benzohydrazide trifluoroacetate]
[1]
  IC50: 0.015 to 0.15 µM
Falcipain-2
  IC50: 0.0025 to 0.015 µM
Falcipain-3
  IC50: 0.015 to 0.15 µM

## CN(C)CCCN(C(=O)OC(C)(C)C)N(CC1CCCC1)c1nc(C#N)nc2c1ncn2CCCN(C)C [Example 16, 1,1-dimethylethyl 2-{2-cyano-9-[3-(dimethylamino)propyl]-9H-purin-6-yl}-2-(cyclopentylmethyl)-1-[3-(dimethylamino)propyl]hydrazinecarboxylate trifluoroacetate]
[1]
  IC50: 0.0025 to 0.015 µM
Falcipain-2
  IC50: 0.0025 to 0.015 µM
Falcipain-3
  IC50: 0.15 to 0.25 µM

## CN(C)C1CCN(C(=O)n2cnc3c(N(NC(=O)OC(C)(C)C)C4CCCC4)nc(C#N)nc32)CC1 [Example 48, 1,1-dimethylethyl 2-(2-cyano-9-{[4-(dimethylamino)-1-piperidinyl]carbonyl}-9H-purin-6-yl)-2-cyclopentylhydrazinecarboxylate trifluoroacetate]
[1]
  IC50: 0.15 to 0.25 µM
Falcipain-2
  IC50: 0.001 to 0.0025 µM
Falcipain-3
  IC50: 0.015 to 0.15 µM

## CN(C)CCn1cnc2c(N(NC(=O)c3cccc(-c4ccc(CN5CCN(C)CC5)cc4)n3)C3CCCC3)nc(C#N)nc21 [Example 42, N′-{2-cyano-9-[2-(dimethylamino)ethyl]-9H-purin-6-yl}-N′-cyclopentyl-6-{4-[(4-methyl-1-piperazinyl)methyl]phenyl}-2-pyridinecarbohydrazide trifluoroacetate]
[1]
  IC50: 0.015 to 0.15 µM
Falcipain-2
  IC50: 0.0025 to 0.015 µM
Falcipain-3
  IC50: 0.015 to 0.15 µM

## CN1CCC(CN2CCN(Cc3ccc(C(=O)NN(c4nc(C#N)nc5c4ncn5C)C4CCCCC4)cc3)CC2)CC1 [Example 9, N′-(2-cyano-9-methyl-9H-purin-6-yl)-N′-cyclohexyl-4-({4-[(1-methyl-4-piperidinyl)methyl]-1-piperazinyl}methyl)-benzohydrazide trifluoroacetate]
[1]
  IC50: 0.0025 to 0.015 µM
Falcipain-2
  IC50: 0.0025 to 0.015 µM
Falcipain-3
  IC50: 0.015 to 0.15 µM

## CN1CCN(c2cccc(C(=O)NN(c3nc(C#N)nc4c3ncn4C)C3CCCC3)c2)CC1 [Example 33, N′-(2-cyano-9-methyl-9H-purin-6-yl)-N′-cyclopentyl-3-(4-methyl-1-piperazinyl)benzohydrazide trifluoroacetate]
[1]
  IC50: 0.015 to 0.15 µM
Falcipain-2
  IC50: 0.001 to 0.0025 µM
Falcipain-3
  IC50: 0.015 to 0.15 µM

## CN1CCN(C(=O)n2cnc3c(N(NC(=O)OC(C)(C)C)C4CCCC4)nc(C#N)nc32)CC1 [Example 29, 1,1-dimethylethyl 2-{2-cyano-9-[(4-methyl-1-piperazinyl)carbonyl]-9H-purin-6-yl}-2-cyclopentylhydrazinecarboxylate]
[1]
  IC50: 0.4 to 1 µM
Falcipain-2
  IC50: ≤ 0.001 µM
Falcipain-3
  IC50: 0.0025 to 0.015 µM

## CN(C)CCn1cnc2c(N(NC(=O)c3ccc(CN4CCN(C)CC4)cc3)C3CCCC3)nc(C#N)nc21 [Example 40, N′-{2-cyano-9-[2-(dimethylamino)ethyl]-9H-purin-6-yl}-N′-cyclopentyl-4-[(4-methyl-1-piperazinyl)methyl]benzohydrazide trifluoroacetate]
[1]
  IC50: 0.015 to 0.15 µM
Falcipain-2
  IC50: 0.0025 to 0.015 µM
Falcipain-3
  IC50: 0.25 to 0.4 µM

## CN1CCC(CN2CCN(Cc3ccc(C(=O)NN(CC4CCCC4)c4nc(C#N)nc5c4ncn5C)cc3)CC2)CC1 [Example 2, N′-(2-cyano-9-methyl-9H-purin-6-yl)-N′-(cyclopentylmethyl)-4-({4-[(1-methyl-4-piperidinyl)methyl]-1-piperazinyl}methyl)benzohydrazide trifluoroacetate]
[1]
  IC50: 0.015 to 0.15 µM
Falcipain-2
  IC50: 0.0025 to 0.015 µM
Falcipain-3
  IC50: 0.015 to 0.15 µM

## CN(C)CCCn1cnc2c(N(NC(=O)c3cccc(-c4ccc(CN5CCN(C)CC5)cc4)n3)C3CCCCC3)nc(C#N)nc21 [Example 46, N′-{2-cyano-9-[3-(dimethylamino)propyl]-9H-purin-6-yl}-N′-cyclo hexyl-6-{4-[(4-methyl-1-piperazinyl)methyl]phenyl}-2-pyridinecarbohydrazide trifluoroacetate]
[1]
  IC50: 0.015 to 0.15 µM
Falcipain-2
  IC50: 0.0025 to 0.015 µM
Falcipain-3
  IC50: 0.015 to 0.15 µM

## CN1CCN(c2ccc(C(=O)NN(c3nc(C#N)nc4c3ncn4C)C3CCCC3)cc2)CC1 [Example 32, N′-(2-cyano-9-methyl-9H-purin-6-yl)-N′-cyclopentyl-4-(4-methyl-1-piperazinyl)benzohydrazide trifluoroacetate]
[1]
  IC50: 0.25 to 0.4 µM
Falcipain-2
  IC50: 0.0025 to 0.015 µM
Falcipain-3
  IC50: 0.015 to 0.15 µM

## CN1CCN(C2CCN(Cc3ccc(C(=O)NN(c4nc(C#N)nc5c4ncn5C)C4CCCC4)cc3)CC2)CC1 [Example 4, N′-(2-cyano-9-methyl-9H-purin-6-yl)-N′-cyclopentyl-4-({[4-(4-methyl-1-piperazinyl)-1-piperidinyl]methyl}benzohydrazide trifluoroacetate]
[1]
  IC50: 0.0025 to 0.015 µM
Falcipain-2
  IC50: 0.0025 to 0.015 µM
Falcipain-3
  IC50: 0.15 to 0.25 µM
